Where no end group is shown, it is not given here. [ ]: non-standard residue; d: D form. Pen = CC(C)(S)[C@H](N)C(=O)O
Legend:
[1] = system: attachment of normal rat kidney cells to vitronectin; test: Cell adhesion assay: inhibition of attachment of normal rat kidney cells to vitronectin; type: cell-based; conditions: vitronectin from human plasma coated at 12 μg/ml, peptide 0 to 10.0 mM, FIG. 2
Protocol: (§1) Fibronectin and vitronectin were purified from human plasma according to the methods of Ruoslahti et al., (1982) Meth. Enz. 82:803; and Hayman et al., (1983) PNAS 80:4003, respectively, both of which are incorporated herein by reference. The adhesion of normal rat kidney cells to fibronectin and vitronectin was assayed as described in Ruoslahti et al., Meth. Enz. supra. Briefly, 0.1 ml solution of fibronectin or vitronectin at a concentration of 12 μg/ml in 0.1M PBS was placed in each well of 96-well plastic microtiter plates and left for 2 hours at room temperature. The unattached protein was removed by washing three times with PBS.
(§2) One day before the assay, a confluent culture of normal rat kidney cells was split 1:2 using standard tissue culture trypsin. The cells were washed three times with PBS, pH 7.2. […] Before the last centrifugation, a sample was taken and cell numbers and viability by trypan blue exclusion are determined. […]
(§3) The unattached cells were removed simply by removing the medium and washing the wells. […] The cells were then fixed with 3% paraformaldehyde in PBS and stained with 1% toluidine blue, paraformaldehyde in PBS, and attached cells counted. Their number was determined using a cell counter that is capable of counting cells attached to a surface (Dynatech Laboratories, Alexandria, Va.). […]

[2] = system: attachment of normal rat kidney cells to fibronectin; test: Cell adhesion assay: inhibition of attachment of normal rat kidney cells to fibronectin; type: cell-based; conditions: fibronectin from human plasma coated at 12 μg/ml, peptide 0 to 10.0 mM, FIG. 2
Protocol: as §1, §2, §3

G[Pen]GRGDSPC (cysteine pairing not given here) [linear peptide]
inhibition of attachment to vitronectin [1]: inhibited attachment of cells to both substrates at relatively similar concentrations | inhibition of attachment to fibronectin [2]: inhibited attachment of cells to both substrates at relatively similar concentrations

Reference: patent US5880092A, “Conformationally stabilized cell adhesion peptides” (La Jolla Cancer Research Foundation, priority 1995, dated 1999)
